Data reported in ChEMBL document CHEMBL2412996, “Increase of anti-HIV activity of C-peptide fusion inhibitors using a bivalent drug design approach” (Bioorg Med Chem Lett, 2013).
Numbered stars: 1 amine (or outer) side, 2 acyl side, 3 side chain; on linkers, the order of the positions; unused ones are H or OH. Square brackets hold non-standard residues; d marks the D form. Peptide text beside a SMILES is read from it. * marks the point of attachment. X2 = CC(=O)N[C@@H](CS)C(=O)OCCOCCOCCN([C@@H](Cc1c[nH]c2ccccc12)C(=O)[*:2])[*:1]; X1 = CC(=O)N[C@@H](CS)C(=O)OCCOCCOCCNCCC(=O)*; Ahx = NCCCCCC(=O)O; βAla = NCCC(=O)O

Columns and labels:
[1] = tested on: TZM-bl; assay: Inhibition of HIV1 HXB2 gp160-mediated cell-cell fusion between viral envelope expressing human HL2/3 cells to human TZM-bl cells expressing CD4, tat, and rev by luciferase reporter gene assay relative to C29; type: cell-based; conditions: Human immunodeficiency virus 1
[2] = Inhibition of HIV1 HXB2 gp160-mediated cell-cell fusion between viral envelope expressing human HL2/3 cells to human TZM-bl cells expressing CD4, tat, and rev by luciferase reporter gene assay; type: cell-based; conditions: Human immunodeficiency virus 1, HXB2, TZM-bl

Compound	Ratio [1]	IC50 [2] [nM]
CC[C@H](C)[C@H](NC(=O)[C@H](CC(C)C)NC(=O)[C@H](CO)NC(=O)[C@H](Cc1cnc[nH]1)NC(=O)[C@@H](NC(=O)[C@H](CC(C)C)NC(=O)[C@H](CO)NC(=O)[C@@H](NC(=O)[C@H](Cc1ccc(O)cc1)NC(=O)[C@H](CC(N)=O)NC(=O)[C@H](CC(N)=O)NC(=O)[C@@H](NC(=O)[C@H](CCC(=O)O)NC(=O)[C@H](CCCNC(=N)N)NC(=O)[C@H](CC(=O)O)NC(=O)[C@H](Cc1c[nH]c2ccccc12)NC(=O)[C@H](CCC(=O)O)NC(=O)[C@H](CCSC)NC(=O)[C@H](Cc1c[nH]c2ccccc12)NC(=O)[C@H](CS)NC(C)=O)[C@@H](C)CC)[C@@H](C)O)[C@@H](C)CC)C(=O)N[C@@H](CCC(=O)O)C(=O)N[C@@H](CCC(=O)O)C(=O)N[C@@H](CO)C(=O)N[C@@H](CCC(N)=O)C(=O)N[C@@H](CC(N)=O)C(=O)N[C@@H](CCC(N)=O)C(=O)N[C@@H](CCC(N)=O)C(=O)N[C@@H](CCC(=O)O)C(=O)N[C@@H](CCCCN)C(=O)N[C@@H](CC(N)=O)C(=O)O (Ac-CWMEWDREINNYTSLIHSLIEESQNQQEKN-OH)	2.84	41.6
CC[C@H](C)[C@H](NC(=O)[C@H](CC(C)C)NC(=O)[C@H](CO)NC(=O)[C@H](Cc1cnc[nH]1)NC(=O)[C@@H](NC(=O)[C@H](CC(C)C)NC(=O)[C@H](CO)NC(=O)[C@@H](NC(=O)[C@H](Cc1ccc(O)cc1)NC(=O)[C@H](CC(N)=O)NC(=O)[C@H](CC(N)=O)NC(=O)[C@@H](NC(=O)[C@H](CCC(=O)O)NC(=O)[C@H](CCCNC(=N)N)NC(=O)[C@H](CC(=O)O)NC(=O)[C@H](Cc1c[nH]c2ccccc12)NC(=O)[C@H](CCC(=O)O)NC(=O)[C@H](CCSC)NC(=O)[C@H](Cc1c[nH]c2ccccc12)NC(=O)CCCCCNC(=O)[C@H](CS)NC(C)=O)[C@@H](C)CC)[C@@H](C)O)[C@@H](C)CC)C(=O)N[C@@H](CCC(=O)O)C(=O)N[C@@H](CCC(=O)O)C(=O)N[C@@H](CO)C(=O)N[C@@H](CCC(N)=O)C(=O)N[C@@H](CC(N)=O)C(=O)N[C@@H](CCC(N)=O)C(=O)N[C@@H](CCC(N)=O)C(=O)N[C@@H](CCC(=O)O)C(=O)N[C@@H](CCCCN)C(=O)N[C@@H](CC(N)=O)C(=O)O (Ac-C[Ahx]WMEWDREINNYTSLIHSLIEESQNQQEKN-OH)	2.41	49
CC[C@H](C)[C@H](NC(=O)[C@H](CC(C)C)NC(=O)[C@H](CO)NC(=O)[C@H](Cc1cnc[nH]1)NC(=O)[C@@H](NC(=O)[C@H](CC(C)C)NC(=O)[C@H](CO)NC(=O)[C@@H](NC(=O)[C@H](Cc1ccc(O)cc1)NC(=O)[C@H](CC(N)=O)NC(=O)[C@H](CC(N)=O)NC(=O)[C@@H](NC(=O)[C@H](CCC(=O)O)NC(=O)[C@H](CCCNC(=N)N)NC(=O)[C@H](CC(=O)O)NC(=O)[C@H](Cc1c[nH]c2ccccc12)NC(=O)[C@H](CCC(=O)O)NC(=O)[C@H](CCSC)NC(=O)[C@H](Cc1c[nH]c2ccccc12)NC(=O)CCNC(=O)[C@H](CS)NC(C)=O)[C@@H](C)CC)[C@@H](C)O)[C@@H](C)CC)C(=O)N[C@@H](CCC(=O)O)C(=O)N[C@@H](CCC(=O)O)C(=O)N[C@@H](CO)C(=O)N[C@@H](CCC(N)=O)C(=O)N[C@@H](CC(N)=O)C(=O)N[C@@H](CCC(N)=O)C(=O)N[C@@H](CCC(N)=O)C(=O)N[C@@H](CCC(=O)O)C(=O)N[C@@H](CCCCN)C(=O)N[C@@H](CC(N)=O)C(=O)O (Ac-C[βAla]WMEWDREINNYTSLIHSLIEESQNQQEKN-OH)	6.01	19.7
CC[C@H](C)[C@H](NC(=O)[C@H](CC(C)C)NC(=O)[C@H](CCC(=O)O)NC(=O)[C@H](CCC(=O)O)NC(=O)[C@@H](NC(=O)[C@H](CCCCN)NC(=O)[C@H](CCCCN)NC(=O)[C@@H](NC(=O)[C@H](Cc1ccc(O)cc1)NC(=O)[C@H](CCC(=O)O)NC(=O)[C@H](CCC(=O)O)NC(=O)[C@@H](NC(=O)[C@H](CCCCN)NC(=O)[C@H](CCCCN)NC(=O)[C@H](CC(=O)O)NC(=O)[C@H](Cc1c[nH]c2ccccc12)NC(=O)[C@H](CCC(=O)O)NC(=O)[C@H](CCC(=O)O)NC(=O)[C@H](Cc1c[nH]c2ccccc12)NC(C)=O)[C@@H](C)CC)[C@@H](C)O)[C@@H](C)CC)C(=O)N[C@@H](CCCCN)C(=O)N[C@@H](CCCCN)C(=O)N[C@@H](CO)C(=O)O (Ac-WEEWDKKIEEYTKKIEELIKKS-OH)		345
CC[C@H](C)[C@H](NC(=O)[C@H](CC(C)C)NC(=O)[C@H](CO)NC(=O)[C@H](Cc1cnc[nH]1)NC(=O)[C@@H](NC(=O)[C@H](CC(C)C)NC(=O)[C@H](CO)NC(=O)[C@@H](NC(=O)[C@H](Cc1ccc(O)cc1)NC(=O)[C@H](CC(N)=O)NC(=O)[C@H](CC(N)=O)NC(=O)[C@@H](NC(=O)[C@H](CCC(=O)O)NC(=O)[C@H](CCCNC(=N)N)NC(=O)[C@H](CC(=O)O)NC(=O)[C@H](Cc1c[nH]c2ccccc12)NC(=O)[C@H](CCC(=O)O)NC(=O)[C@H](CCSC)NC(=O)[C@H](Cc1c[nH]c2ccccc12)NC(C)=O)[C@@H](C)CC)[C@@H](C)O)[C@@H](C)CC)C(=O)N[C@@H](CCC(=O)O)C(=O)N[C@@H](CCC(=O)O)C(=O)N[C@@H](CO)C(=O)O (Ac-WMEWDREINNYTSLIHSLIEES-OH)		1240
CC[C@H](C)[C@H](NC(=O)[C@H](CC(C)C)NC(=O)[C@H](CO)NC(=O)[C@H](Cc1cnc[nH]1)NC(=O)[C@@H](NC(=O)[C@H](CC(C)C)NC(=O)[C@H](CO)NC(=O)[C@@H](NC(=O)[C@H](Cc1ccc(O)cc1)NC(=O)[C@H](CC(N)=O)NC(=O)[C@H](CC(N)=O)NC(=O)[C@@H](NC(=O)[C@H](CCC(=O)O)NC(=O)[C@H](CCCNC(=N)N)NC(=O)[C@H](CC(=O)O)NC(=O)[C@H](Cc1c[nH]c2ccccc12)NC(=O)[C@H](CCC(=O)O)NC(=O)[C@H](CCSC)NC(=O)[C@H](Cc1c[nH]c2ccccc12)NC(C)=O)[C@@H](C)CC)[C@@H](C)O)[C@@H](C)CC)C(=O)N[C@@H](CCC(=O)O)C(=O)N[C@@H](CCC(=O)O)C(=O)N[C@@H](CO)C(=O)N[C@@H](CCC(N)=O)C(=O)N[C@@H](CC(N)=O)C(=O)N[C@@H](CCC(N)=O)C(=O)N[C@@H](CCC(N)=O)C(=O)N[C@@H](CCC(=O)O)C(=O)N[C@@H](CCCCN)C(=O)N[C@@H](CC(N)=O)C(=O)O (Ac-WMEWDREINNYTSLIHSLIEESQNQQEKN-OH)		118
CC[C@H](C)[C@H](NC(=O)[C@H](CC(C)C)NC(=O)[C@H](CO)NC(=O)[C@H](Cc1cnc[nH]1)NC(=O)[C@@H](NC(=O)[C@H](CC(C)C)NC(=O)[C@H](CO)NC(=O)[C@@H](NC(=O)[C@H](Cc1ccc(O)cc1)NC(=O)[C@H](CC(N)=O)NC(=O)[C@H](CC(N)=O)NC(=O)[C@@H](NC(=O)[C@H](CCC(=O)O)NC(=O)[C@H](CCCNC(=N)N)NC(=O)[C@H](CC(=O)O)NC(=O)[C@H](Cc1c[nH]c2ccccc12)NC(=O)[C@H](CCC(=O)O)NC(=O)[C@H](CCSC)NC(=O)[C@H](Cc1c[nH]c2ccccc12)NC(C)=O)[C@@H](C)CC)[C@@H](C)O)[C@@H](C)CC)C(=O)N[C@@H](CCC(=O)O)C(=O)N[C@@H](CCC(=O)O)C(=O)N[C@@H](CO)C(=O)N[C@@H](CCC(N)=O)C(=O)N[C@@H](CC(N)=O)C(=O)N[C@@H](CCC(N)=O)C(=O)N[C@@H](CCC(N)=O)C(=O)N[C@@H](CCC(=O)O)C(=O)N[C@@H](CCCCN)C(=O)N[C@@H](CC(N)=O)C(=O)NCCCCCC(=O)N[C@@H](CS)C(=O)O (Ac-WMEWDREINNYTSLIHSLIEESQNQQEKN[Ahx]C-OH)	0.58	203
CC[C@H](C)[C@H](NC(=O)[C@H](CC(C)C)NC(=O)[C@H](CO)NC(=O)[C@H](Cc1cnc[nH]1)NC(=O)[C@@H](NC(=O)[C@H](CC(C)C)NC(=O)[C@H](CO)NC(=O)[C@@H](NC(=O)[C@H](Cc1ccc(O)cc1)NC(=O)[C@H](CC(N)=O)NC(=O)[C@H](CC(N)=O)NC(=O)[C@@H](NC(=O)[C@H](CCC(=O)O)NC(=O)[C@H](CCCNC(=N)N)NC(=O)[C@H](CC(=O)O)NC(=O)[C@H](Cc1c[nH]c2ccccc12)NC(=O)[C@H](CCC(=O)O)NC(=O)[C@H](CCSC)NC(=O)[C@H](Cc1c[nH]c2ccccc12)NCCOCCOCCOC(=O)[C@H](CS)NC(C)=O)[C@@H](C)CC)[C@@H](C)O)[C@@H](C)CC)C(=O)N[C@@H](CCC(=O)O)C(=O)N[C@@H](CCC(=O)O)C(=O)N[C@@H](CO)C(=O)N[C@@H](CCC(N)=O)C(=O)N[C@@H](CC(N)=O)C(=O)N[C@@H](CCC(N)=O)C(=O)N[C@@H](CCC(N)=O)C(=O)N[C@@H](CCC(=O)O)C(=O)N[C@@H](CCCCN)C(=O)N[C@@H](CC(N)=O)C(=O)O (H-[X2]MEWDREINNYTSLIHSLIEESQNQQEKN-OH)	7.69	15.4
CC[C@H](C)[C@H](NC(=O)[C@H](CC(C)C)NC(=O)[C@H](CO)NC(=O)[C@H](Cc1cnc[nH]1)NC(=O)[C@@H](NC(=O)[C@H](CC(C)C)NC(=O)[C@H](CO)NC(=O)[C@@H](NC(=O)[C@H](Cc1ccc(O)cc1)NC(=O)[C@H](CC(N)=O)NC(=O)[C@H](CC(N)=O)NC(=O)[C@@H](NC(=O)[C@H](CCC(=O)O)NC(=O)[C@H](CCCNC(=N)N)NC(=O)[C@H](CC(=O)O)NC(=O)[C@H](Cc1c[nH]c2ccccc12)NC(=O)[C@H](CCC(=O)O)NC(=O)[C@H](CCSC)NC(=O)[C@H](Cc1c[nH]c2ccccc12)NC(=O)CCNCCOCCOCCOC(=O)[C@H](CS)NC(C)=O)[C@@H](C)CC)[C@@H](C)O)[C@@H](C)CC)C(=O)N[C@@H](CCC(=O)O)C(=O)N[C@@H](CCC(=O)O)C(=O)N[C@@H](CO)C(=O)N[C@@H](CCC(N)=O)C(=O)N[C@@H](CC(N)=O)C(=O)N[C@@H](CCC(N)=O)C(=O)N[C@@H](CCC(N)=O)C(=O)N[C@@H](CCC(=O)O)C(=O)N[C@@H](CCCCN)C(=O)N[C@@H](CC(N)=O)C(=O)O (X1-WMEWDREINNYTSLIHSLIEESQNQQEKN-OH)	8.08	14.7
